Laboratory results reported in patent publication US20100261749A1, “METHOD OF PREVENTING OR AMELIORATING PSORIASIS USING PYRROLOQUINOLINE QUINONE COMPOUNDS” (KYOWA HAKKO BIO CO., LTD., priority 2007, published 2010).

Tests used:
[1] = tested on: mast cells in dermis; assay: Number of mast cells in dermis, May-Grunwald-Giemsa staining; format: in vivo, mice
Protocol: (§1) For testing, HOS: HR-1 mice (female, 4 weeks old, purchased from Hoshino Laboratory Animmals, Inc.) were used. Mice were raised under conditions of a room temperature of 22±3° C. and a humidity of 50±25% while being fed with feed and water ad libitum.
(§2) Each test group consisted of 8 mice. The mice of the 1st group were fed with a commercially available powder feed product “CE-2.” The mice of the 2nd group were fed with a specialty feed product (produced by Nosan Corporation). The mice of the 3rd group were fed with a specialty feed product containing 0.0089% by weight of pyrroloquinoline quinone disodium salt (hereinafter referred to as PQQ disodium salt, produced by Mitsubishi Gas Chemical Company, Inc.). In addition, it has been known that HOS: HR-1 mice develop dry skin after being fed with the above specialty feed product (The Journal of international medical research pharmacology, 32, 392-399 (2004)).
The number of mast cells in dermis was determined with the use of May-Grunwald-Giemsa staining specimens. The counting area was the dermis located above the cutaneous muscle. The number of cells in the dermis (per 1 mm of the baseline) was obtained by dividing the determined cell number by the length of a straight line extending between both ends of the cutaneous muscle (baseline). […]

[2] = tested on: HOS: HR-1 mice; assay: Epidermis thickness, paraffin sections of mouse dorsal skin; format: in vivo
Protocol: as §1, §2
Paraffin sections of mouse dorsal skin fixed with neutral buffer containing 10 vol % formalin were prepared for the determination of epidermis thickness. Table 3 lists results of the determination of epidermis thickness 6 weeks after the initiation of the test.

[3] = tested on: HOS: HR-1 mice; assay: Transepidermal water loss (TEWL) in dry skin mouse models, Tewameter TM210; format: in vivo; conditions: for TEWL value: specialty feed containing 0.0089% by weight PQQ disodium salt, right buttock, group average
Protocol: as §1, §2
Upon the initiation of feeding with each feed product and 2, 4, and 6 weeks later, the transepidermal water loss (TEWL) of the right buttock of each mouse was determined with the use of a Tewameter TM210 (Courage+Khazaka electronic GmbH, Germany) and the average value for each group was calculated.

[4] = tested on: CD3-positive T lymphocytes in the epidermis; assay: Number of CD3-positive T lymphocytes in epidermis, anti-CD3 immunostaining; format: in vivo, mice
Protocol: as §1, §2
In addition, counting of the number of CD3-positive T lymphocytes in the epidermis was carried out with the use of anti-CD3 immunostained specimens. The counting area was the dermis located above the cutaneous muscle. The number of cells in the epidermis (per mm of the baseline) was obtained by dividing the determined cell number by the length of a straight line extending between both ends of the cutaneous muscle (baseline). […]

[5] = tested on: HOS: HR-1 mice; assay: Skin moisture content (conductance) in dry skin mouse models, SKICON-200; format: in vivo; conditions: for Conductance (skin moisture content): specialty feed containing 0.0089% by weight PQQ disodium salt, group average
Protocol: as §1, §2
In addition, the skin moisture content (conductance) was determined with SKICON-200 (produced by IBS) and the average value for each group was calculated. Table 2 lists results of determination of the skin moisture content from week 0 to week 6 after the initiation of the test.

[6] = 3rd group versus 2nd group, 6 weeks
[7] = 6 weeks after initiation, specialty feed containing 0.0089% by weight PQQ disodium salt, *p < 0.05 for the 2nd group
[8] = 3rd group versus 2nd group (specialty feed without PQQ disodium salt)
[9] = feeding period 0 weeks (initiation)

**Q.** Which results are given for O=C(O)c1cc(C(=O)O)c2c(n1)C(=O)C(=O)c1cc(C(=O)O)[nH]c1-2.[Na].[Na] [PQQ disodium salt, pyrroloquinoline quinone disodium salt]?
**A.** Number of mast cells in the dermis, result in words [1, 6]: the number of mast cells in the dermis was suppressed; Number of mast cells in dermis per mm basal line [1, 7]: 54.62* cells/mm basal line; Epidermis thickening, result in words [2, 6]: epidermis thickening was suppressed; Epidermis thickness ([2]; 6 weeks after initiation, dorsal skin, specialty feed containing 0.0089% by weight PQQ disodium salt): 64.03 μm; Transepidermal water loss value (TEWL value), result in words [3, 8]: suppressed to a level lower than that in the 2nd group; TEWL value [3, 9]: 4.94 g/m²/h; TEWL value ([3]; feeding period 2 weeks): 17.9 g/m²/h; TEWL value ([3]; feeding period 4 weeks): 27 g/m²/h; TEWL value ([3]; feeding period 6 weeks): 29.9 g/m²/h; Number of CD3-positive cells in the epidermis, result in words [4, 6]: the number of CD3-positive cells in the epidermis was suppressed; Number of CD3-positive cells in epidermis per mm basal line [4, 7]: 18.95* cells/mm basal line; Skin moisture content (conductance), result in words [5, 8]: increased to a greater extent than that in the 2nd group; Conductance (skin moisture content) [5, 9]: 414.55 μS; Conductance (skin moisture content) ([5]; feeding period 2 weeks): 67.83 μS; Conductance (skin moisture content) ([5]; feeding period 4 weeks): 41.95 μS; Conductance (skin moisture content) ([5]; feeding period 6 weeks): 39.03 μS
